Experimental data: ChEMBL document CHEMBL1201862, “PubChem BioAssay data set” (2004)
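Interpolation was linear, between the two tested concentrations surrounding the appropriate level; five concentrations were tested over 48 hours in 96-well plates. GI50 marks 50% less growth.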 Calls of active or inactive are those of the source. No stated cut-off is given here; in the data, active = GI50 up to about 1.1 µM and inactive = higher.

Columns and labels:
Assay in all cases: DTP human tumour cell line panel, 48 h
786-0 = tested on: 786-0
COLO 205 = tested on: COLO 205
HOP-62 = tested on: HOP-62
MDA-N = tested on: MDA-N
MOLT-4 = tested on: MOLT-4
Malme-3M = tested on: Malme-3M
NCI/ADR-RES = tested on: NCI/ADR-RES
OVCAR-3 = tested on: OVCAR-3
PC-3 = tested on: PC-3
RXF 393 = tested on: RXF 393
SF-268 = tested on: SF-268
SK-MEL-2 = tested on: SK-MEL-2
SK-OV-3 = tested on: SK-OV-3
SN12C = tested on: SN12C
T47D = tested on: T47D
UACC-62 = tested on: UACC-62
CCRF-CEM = tested on: CCRF-CEM
SF-539 = tested on: SF-539

Row | SMILES | GI50 (786-0) | GI50 (COLO 205) | GI50 (HOP-62) | GI50 (MDA-N) | GI50 (MOLT-4) | GI50 (Malme-3M) | GI50 (NCI/ADR-RES) | GI50 (OVCAR-3) | GI50 (PC-3) | GI50 (RXF 393) | GI50 (SF-268) | GI50 (SK-MEL-2) | GI50 (SK-OV-3) | GI50 (SN12C) | GI50 (T47D) | GI50 (UACC-62) | GI50 (CCRF-CEM) | GI50 (SF-539)
1 | O=C1c2ccccc2C(=O)c2c(Nc3cc4c5c(ccc6c7ccc8c9c(cc(Nc%10cccc%11c%10C(=O)c%10ccccc%10C%11=O)c(c3c56)c97)-c3ccccc3C8=O)C(=O)c3ccccc3-4)cccc21 | 29.2 µM (inactive) | > 100 µM (inactive) | 17 µM (inactive) | > 100 µM (inactive) | 37.8 µM (inactive) | > 100 µM (inactive) | 49.1 µM (inactive) | 41.2 µM (inactive) | 70.6 µM (inactive) | 60.3 µM (inactive) | 18.8 µM (inactive) | 53.6 µM (inactive) | 16.6 µM (inactive) | > 100 µM (inactive) | > 100 µM (inactive) | > 100 µM (inactive) |  | 
2 | CCOC(=O)O/C(=C\c1ccc(OC)cc1)c1c(OC(=O)OCC)n(C(=O)OCC)c2ccccc12 | 39.5 µM (inactive) | > 100 µM (inactive) | 19.9 µM (inactive) | 19.3 µM (inactive) |  | 58.6 µM (inactive) | 43.9 µM (inactive) | 59.4 µM (inactive) | 29.2 µM (inactive) | 19.8 µM (inactive) | 47.1 µM (inactive) | 35 µM (inactive) | 41.5 µM (inactive) | 31.6 µM (inactive) | 57.7 µM (inactive) | 42.7 µM (inactive) | 21.8 µM (inactive) | 34.8 µM (inactive)
3 | C1CN(c2nc3c(nnc4nc(N5CCOCC5)sc43)s2)CCO1 | > 100 µM (inactive) | > 100 µM (inactive) | > 100 µM (inactive) | > 100 µM (inactive) | 58.7 µM (inactive) | 37.2 µM (inactive) | > 100 µM (inactive) | 78.3 µM (inactive) | > 100 µM (inactive) | > 100 µM (inactive) | 49.7 µM (inactive) | > 100 µM (inactive) |  | 96.6 µM (inactive) | 23.7 µM (inactive) | > 100 µM (inactive) | 52.8 µM (inactive) | > 100 µM (inactive)
4 | CCOC(=O)[C@@]12C[C@](/C=C/OC)(O[Si](C)(C)C)[C@@]13c1cc(OC)c(OC)cc1CCN3C(=O)C2=O | > 100 µM (inactive) | > 100 µM (inactive) | > 100 µM (inactive) | > 100 µM (inactive) | > 100 µM (inactive) | > 100 µM (inactive) | > 100 µM (inactive) | > 100 µM (inactive) | > 100 µM (inactive) | > 100 µM (inactive) | > 100 µM (inactive) | > 100 µM (inactive) | > 100 µM (inactive) | > 100 µM (inactive) | > 100 µM (inactive) | > 100 µM (inactive) | > 100 µM (inactive) | > 100 µM (inactive)
5 | O=C1/C(=C/c2cccc([N+](=O)[O-])c2)N=C(c2ccccc2)N1c1nc2ccc(Sc3ccccc3)cc2[nH]1 | 60.1 µM (inactive) | 31.8 µM (inactive) | 83 µM (inactive) | 14.9 µM (inactive) | 34.8 µM (inactive) | 63.1 µM (inactive) | 29.3 µM (inactive) |  | 35.4 µM (inactive) | 74.3 µM (inactive) | 39 µM (inactive) | 30.3 µM (inactive) | 34.4 µM (inactive) | 60 µM (inactive) | 47.2 µM (inactive) | 36.1 µM (inactive) |  | 57.4 µM (inactive)
6 | O=P(O)(Cc1ccccc1)c1ccccc1-c1ccccc1 | > 100 µM (inactive) | 57.8 µM (inactive) | > 100 µM (inactive) | > 100 µM (inactive) | > 100 µM (inactive) | > 100 µM (inactive) | > 100 µM (inactive) |  | > 100 µM (inactive) | 54.6 µM (inactive) | > 100 µM (inactive) | > 100 µM (inactive) | > 100 µM (inactive) | > 100 µM (inactive) | > 100 µM (inactive) | > 100 µM (inactive) | > 100 µM (inactive) | > 100 µM (inactive)
7 | C/C=C1/CN2CC[C@@H]3c4ccccc4N4[C@H](C(=O)OC)[C@H]1C[C@H]2[C@]34/C=C/C1=COC[C@@H]2[C@H]1C[C@H]1c3c(c4ccccc4n3C)C[C@@H]2N1C |  | 3.4 µM (inactive) | 3.82 µM (inactive) | 2.32 µM (inactive) | 4.02 µM (inactive) | 4.62 µM (inactive) | 3.46 µM (inactive) | 4.33 µM (inactive) | 2.9 µM (inactive) | 4.19 µM (inactive) | 3.61 µM (inactive) | 4.33 µM (inactive) | 4.57 µM (inactive) | 4.33 µM (inactive) | 4.23 µM (inactive) | 4.86 µM (inactive) | 5.31 µM (inactive) | 4.15 µM (inactive)
8 | COc1ccc2c(c1)C(=O)CC1c3cnccc3C(=O)N21 (stereo not drawn) | > 100 µM (inactive) | > 100 µM (inactive) | > 27.8 µM (inactive) | > 100 µM (inactive) | > 100 µM (inactive) | > 100 µM (inactive) | > 100 µM (inactive) | > 100 µM (inactive) | > 100 µM (inactive) | > 75.9 µM (inactive) | > 100 µM (inactive) | > 100 µM (inactive) | > 100 µM (inactive) | > 100 µM (inactive) | > 100 µM (inactive) | > 63.7 µM (inactive) |  | > 100 µM (inactive)
9 | NCCC1([N+](=O)[O-])C=CN=CC1 (stereo not drawn) | > 100 µM (inactive) | > 100 µM (inactive) |  | > 100 µM (inactive) | > 100 µM (inactive) | > 100 µM (inactive) | > 100 µM (inactive) |  | > 100 µM (inactive) | > 100 µM (inactive) | > 100 µM (inactive) | > 100 µM (inactive) | > 100 µM (inactive) | > 100 µM (inactive) | > 100 µM (inactive) | > 100 µM (inactive) | > 100 µM (inactive) | > 100 µM (inactive)
10 | Cc1cc(O)cc(O)c1/N=N/c1ccc([N+](=O)[O-])cc1 |  | 30.5 µM (inactive) | > 100 µM (inactive) | 15.6 µM (inactive) | 5.3 µM (inactive) | 20.2 µM (inactive) | 10.6 µM (inactive) | > 100 µM (inactive) | 16 µM (inactive) | 10.6 µM (inactive) | 9.86 µM (inactive) | 15.4 µM (inactive) | > 100 µM (inactive) | 5.71 µM (inactive) | 9.14 µM (inactive) | 12.9 µM (inactive) | 5.69 µM (inactive) | 29 µM (inactive)
11 | N#Cc1cccc(C2ON=C(c3ccc([N+](=O)[O-])cc3)N2C23CC4CC(CC(C4)C2)C3)c1 (stereo not drawn) | > 100 µM (inactive) | > 100 µM (inactive) | > 100 µM (inactive) | > 100 µM (inactive) | 6.68 µM (inactive) | 59.7 µM (inactive) | > 100 µM (inactive) | 39.3 µM (inactive) | 5.2 µM (inactive) | 13.1 µM (inactive) | > 100 µM (inactive) | 16.7 µM (inactive) | > 100 µM (inactive) | > 100 µM (inactive) | 17.3 µM (inactive) | > 100 µM (inactive) | > 100 µM (inactive) | > 100 µM (inactive)
12 | Cc1ccc(S(=O)(=O)NC(C(=O)O)C(C)C)cc1 (stereo not drawn) | > 100 µM (inactive) |  | > 100 µM (inactive) | > 100 µM (inactive) | > 100 µM (inactive) | > 100 µM (inactive) | > 100 µM (inactive) | > 100 µM (inactive) | > 100 µM (inactive) | > 100 µM (inactive) | > 100 µM (inactive) | > 100 µM (inactive) |  | > 100 µM (inactive) | > 100 µM (inactive) | > 100 µM (inactive) | > 100 µM (inactive) | 
13 | Cc1nc(C)c(C(=O)NNC(=O)c2ccccc2)cc1C(=O)NNC(=O)c1ccccc1 | > 100 µM (inactive) | > 100 µM (inactive) | > 100 µM (inactive) | > 100 µM (inactive) | > 100 µM (inactive) |  | > 100 µM (inactive) | > 100 µM (inactive) | > 100 µM (inactive) | > 100 µM (inactive) | > 100 µM (inactive) | > 100 µM (inactive) | > 100 µM (inactive) | > 100 µM (inactive) | > 100 µM (inactive) | > 100 µM (inactive) | > 100 µM (inactive) | > 100 µM (inactive)
14 | CN1CCOC1(C)CO (stereo not drawn) | > 100 µM (inactive) | > 100 µM (inactive) | > 100 µM (inactive) | > 100 µM (inactive) | > 100 µM (inactive) | > 100 µM (inactive) | > 100 µM (inactive) | > 100 µM (inactive) | > 100 µM (inactive) | > 100 µM (inactive) | > 100 µM (inactive) | > 100 µM (inactive) | > 100 µM (inactive) |  | > 100 µM (inactive) | > 100 µM (inactive) | > 100 µM (inactive) | > 100 µM (inactive)
15 | CC(NNC(=O)c1cc[n+]([BH2-]C#N)cc1)c1cccc(F)c1 (stereo not drawn) | > 100 µM (inactive) | > 100 µM (inactive) |  | > 100 µM (inactive) | > 100 µM (inactive) | > 100 µM (inactive) | > 100 µM (inactive) | > 100 µM (inactive) | > 100 µM (inactive) | > 100 µM (inactive) | > 100 µM (inactive) | > 100 µM (inactive) |  | > 100 µM (inactive) | > 100 µM (inactive) | > 100 µM (inactive) | > 100 µM (inactive) | > 100 µM (inactive)
16 | CCCC1CCC(=C2C(=O)CCC2=O)O1 (stereo not drawn) | > 100 µM (inactive) | > 100 µM (inactive) | > 100 µM (inactive) | > 100 µM (inactive) | 0.849 µM (active) |  | > 100 µM (inactive) | > 100 µM (inactive) | > 100 µM (inactive) | > 100 µM (inactive) | > 100 µM (inactive) | > 100 µM (inactive) | > 100 µM (inactive) | > 100 µM (inactive) | > 100 µM (inactive) | > 100 µM (inactive) | > 100 µM (inactive) | > 100 µM (inactive)
